Measured values as given in patent US20080234203A1, “Use of Substances Having Oxytocin Antagonistic Properties” (Ferring BV, priority 2004, published 2008).

How the values were obtained:
[1] = system: isolated rat uterine artery; assay: In vitro contractility of isolated rat uterine artery from nonpregnant, midpregnant and late pregnant rats
Text: The X axis-represents the oxytocin concentration {log M} and the Y axis represents % of phenylephrine-induced contraction. […] The following pD2 values were obtained, non-pregnant (9.32±0.41, n=7), midpregnant (7.46±0.13, n=6) and late pregnant (7.87±0.39, n=6). It could be speculated that the generally lower sensitivity of uterine vessels during pregnancy is related to eventually higher local oxytocin concentrations.
(§1) Nonpregnant or timed-pregnant Sprague-Dawley rats (of a 22-day pregnancy, with day 1 being the day when the sperm plug was observed) were obtained from Charles River Laboratories (Houston, Tex.). In some studies Spontaneously Hypertensive Rats (SHR) and their respective normatensive controls (WKY) were used. Rats were killed by means of carbon dioxide inhalation on day 14 (midterm pregnant) or day 22 before labor (term pregnant) or during the estrus cycle (nonpregnant). […] Contractions of uterine vascular tissues (cut into rings) were recorded and stored on computer with the DI-220 (DataQ Instruments Inc, Akron, Ohio) data acquisition system. […]
(§2) Data were analyzed by using Windaq/200 (DataQ Instruments Inc) software. Integral activity as an area under the tracing of vascular contractions for 10 minutes (expressed as milligrams per second) before (basal activity) and after the addition of each concentration of the agent was calculated and compared with basal activity (as percentage change). […] The concentration of oxytocin causing 50% of the maximal effect was determined, and the −log50 of the half maximal effect and the area under the concentration-response curves were calculated and compared. The data are expressed as mean ± SD. […]

[2] = system: isolated uterine artery, femoral artery, carotoid artery and aorta; assay: In vitro contractility of isolated arteries from non-pregnant WKY rats; set-up: species or system Wistar (WKY) rats
Text: as §1, §2

[3] = system: isolated uterine artery, femoral artery, carotoid artery and aorta; assay: In vitro contractility of isolated arteries from non-pregnant SHR rats; set-up: species or system spontaneous hypertensive (SHR) rats; conditions: uterine arteries compared with femoral artery
Text: as §1, §2

pregnant rats = assay: Blood pressure measurements in pregnant rats (tail cuff); assay type: in vivo, rat; conditions: 200 μg/d, gestational day 19 to 22 and pp1 to pp7
Method: The X axis represents the time of pregnancy (gestational age), and the Y axis represents the systolic blood pressure (mmHg). Barusiban (200 μg/d), atosiban (200 μg/d) and control (saline) (200 μg/d) were administered to pregnant rats from gestational day 19 to 22 and during pp1 to pp7 (pp=post partum).
Animals. Adult nulliparous pregnant rats (300-325 g body weight) were purchased from Harlan Sprague Dawley, Inc (Indianapolis, Ind.), and were received in the animal facilities on day 16 of pregnancy (with day 1 being the day of the positive sperm smear result). All animals were given free access to food and water.
Blood pressure measurement. Starting on day 19 of pregnancy systolic blood pressure was measured daily or every other day with a pneumatic tail cuff device (NARCO Biosystems, Inc, Austin, Tex.) in animals that had been warmed in a metal chamber maintained at approximately 30° C. Blood pressure values obtained from 3 consecutive measurements were averaged and recorded as the pressure for a given rat at each point. Measurements of systolic blood pressure of all animals were carried out until delivery and for seven days post partum (pp7) All animals delivered on day 22 of gestation, the expected day of delivery. Three groups of animals were studied: Group 1. […]
Statistical analysis. Mean +/− SEM values were calculated for blood pressure levels on each day of pregnancy and post partum. […]

| Molecule | pD2 (oxytocin-induced contraction, % of phenylephrine-induced contraction) ([1]; uterine artery of late pregnant rats, n=6) | pD2 (oxytocin-induced contraction, % of phenylephrine-induced contraction) ([1]; uterine artery of midpregnant rats, n=6) | pD2 (oxytocin-induced contraction, % of phenylephrine-induced contraction) ([1]; uterine artery of non-pregnant rats, n=7) | oxytocin sensitivity (contraction dose/response) ([2]; uterine arteries compared with femoral artery, carotoid artery and aorta, non-pregnant WKY rats) | oxytocin sensitivity (contraction dose/response) ([2]; uterine arteries of non-pregnant WKY rats compared with SHR rats) | oxytocin sensitivity (contraction dose/response) [3] | systolic blood pressure (pregnant rats) |
| --- | --- | --- | --- | --- | --- | --- | --- |
| CC[C@H](C)[C@@H]1NC(=O)[C@H](Cc2ccc(O)cc2)NC(=O)[C@@H](N)CSSC[C@@H](C(=O)N2CCC[C@H]2C(=O)N[C@@H](CC(C)C)C(=O)NCC(N)=O)NC(=O)[C@H](CC(N)=O)NC(=O)[C@H](CCC(N)=O)NC1=O [oxytocin] | 7.87±0.39 | 7.46±0.13 | 9.32±0.41 | outstanding high sensitivity | higher sensitivity | highest sensitivity |  |
| C^4,6, S^1-cyclo [Barusiban, C^4,6, S^1-cyclo [N-(3-sulfanylpropanoyl) -D-tryptophyl-L -isoleucyl-L-alloisoleucyl-L-asparaginyl-L-2-aminobutanoyl-N-methyl-L-ornithinol]] |  |  |  |  |  |  | beneficial drop in systolic blood pressure around birth |
